Data: patent US6677310B1, “Ring-expanded nucleosides and nucleotides” (Nabi, priority 1999, dated 2004)
Converted amounts (≈) assume the structure as drawn. Like-named read-outs stand apart in the source and are kept apart here. Blank lines part the entries; values can stand above or below the compound they belong to.

Legend:
[1] = test system: Hepatitis B virus (HBV); test: Anti-HBV assay in 2.2.15 cells (virion DNA, HBV RI); type: cell-based; settings: 9 days; for EC90: 10 fold inhibition
Procedure: The anti-HBV assays were performed according to the published protocol of Korba and Milman, (Korba, B. E.; Milman, G. Antiviral Res., 15, 217 1991), using cultures of 2.2.15 cells. In brief, the assay consisted of (a) seeding the chronically HBV-producing human liver cells (Acs et al. Proc. Nat. Acad. Sci., 84, 464 1987) into 24-well tissue culture plates, and growing to confluence, (b) adding test compounds daily for a continuous 9-day period, harvesting culture media after day 9 and (c) lysing treated cells 24 hours following day 9 of treatment for the analysis of extracellular virion DNA and intracellular HBV genomic forms.
Anti-HBV activity and the toxicity against confluent 2.2.15 cells were determined by the previously described procedure (Korba, B. E., et al. Antivir. Res., 19:55-70, 1992; Korba, B. E., et al. Antivir. Res., 15:217-228, 1991). Briefly, confluent cultures of HBV transfected 2.2.15 cells were maintained on either 96-well or 24-well flat-bottomed tissue culture plates in RPMI 1640 medium with 2% fetal bovine serum (FBS). The cells were treated with test compounds daily for nine consecutive days. The culture media were harvested on day 9 to quantify the amount of virion DNA. On day 10, the cells were lysed to quantify the amount of intracellular HBV replicative intermediates (RI). The quantification of virion DNA and the HBV RI were done by blot hybridization methods (Korba, B. E., et al. Antivir. Res., 19:55-70, 1992; Korba, B. E., et al. Antivir. Res., 15:217-228, 1991). Cellular toxicity against separate cultures of confluent 2.2.15 cells was measured after treatment with the compounds for nine days under identical culture conditions as those used for the antiviral assay (Korba, B. E., et al. Antivir. Res., 19:55-70, 1992). Uptake of neutral red dye by treated cells was compared with dye uptake by untreated control cells (Korba, B. E., et al. Antivir. Res., 19:55-70, 1992).

[2] = target: T1, bacteriophage T7 RNA polymerase (Escherichia phage T7, UniProt P00573); test: Transcription catalyzed by T7 RNA polymerase; type: biochemical
T1 construct: purchased Promega P2075
T1 sequence (P00573 whole entry): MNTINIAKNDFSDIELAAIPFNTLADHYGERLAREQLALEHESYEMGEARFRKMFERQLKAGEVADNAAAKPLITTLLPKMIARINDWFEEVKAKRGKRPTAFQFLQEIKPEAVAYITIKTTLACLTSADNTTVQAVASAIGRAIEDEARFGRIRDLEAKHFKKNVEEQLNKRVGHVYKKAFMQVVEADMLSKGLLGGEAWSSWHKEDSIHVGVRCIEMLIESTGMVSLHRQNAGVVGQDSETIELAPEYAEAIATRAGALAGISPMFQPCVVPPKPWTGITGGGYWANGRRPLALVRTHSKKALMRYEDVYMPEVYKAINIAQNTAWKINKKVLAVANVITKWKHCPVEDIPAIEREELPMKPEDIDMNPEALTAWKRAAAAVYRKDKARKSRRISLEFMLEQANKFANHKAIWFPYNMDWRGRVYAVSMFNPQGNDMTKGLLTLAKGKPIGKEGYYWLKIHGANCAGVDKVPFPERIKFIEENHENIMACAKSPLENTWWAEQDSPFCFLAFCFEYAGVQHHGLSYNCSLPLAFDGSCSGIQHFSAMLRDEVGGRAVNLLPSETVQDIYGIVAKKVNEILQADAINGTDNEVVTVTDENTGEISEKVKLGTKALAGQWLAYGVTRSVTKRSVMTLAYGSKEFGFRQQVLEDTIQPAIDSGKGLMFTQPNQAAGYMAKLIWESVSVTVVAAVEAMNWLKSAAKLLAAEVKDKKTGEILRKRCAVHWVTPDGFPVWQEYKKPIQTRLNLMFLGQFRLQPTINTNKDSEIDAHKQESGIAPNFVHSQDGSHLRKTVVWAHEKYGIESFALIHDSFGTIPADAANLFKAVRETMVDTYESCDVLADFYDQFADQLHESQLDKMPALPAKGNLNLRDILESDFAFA
Procedure: To show whether the “fat” nucleotide Compound 15-2 (FNTP) is incorporated into RNA during transcription, experiments were performed using bacteriophage T7 RNA polymerase (RNAP) and a synthetic 42-mer DNA template shown below that is annealed to a 17-nucleotide promoter specific for T7 RNAP. This promoter-template enables the synthesis of 25-mer RNA, and the purine analogue may be incorporated in positions +1, +11, +13, +15, +21, +22, and +23.
Transcription reaction conditions were optimized with the use of ^32P CTP for labeling RNA transcripts. Polyacrylimide gel electrophoresis of the transcription products obtained from the 42-mer template, using 1 mM each of four natural NTPs, reveled a 25-mer RNA as the major product, together with shorter and longer labeled transcripts (FIG. 9, lane 1). The additional bands observed are consistent with the known ability of T7 RNA polymerase to add non-coded residues at the 3′-end of transcripts. (Milligan, J. F., et al., Nuc. Acids Res., 15, 8783-8798, 1987) With the use of 1 mM nucleotide Compound 15-2 (FNTP), the yield of transcription was reduced (lane 2).
With the use of a synthetic 37-mer DNA template, annealed to a 17-nucleotide promoter for T7 RNAP as shown below, a 20 nucleotide-long transcript RNA was obtained when the reaction mixture contained all four NTPs in appropriate concentrations, along with many shorter “abortive” fragments. (Milligan, J. F., et al., Nuc. Acids Res., 15, 8783-8798, 1987). For the reaction with modified nucleotide, typically
the concentration of the appropriate natural nucleotide was reduced. […] (Milligan, J. F., et al., Methods in Enzymol., 180, 51-63, 1989.) In the present experiments, the synthesis of RNA was compared under standard conditions (using 4 NTPs in 0.2 mM concentration each) with the synthesis of RNA by using an additional “fat” nucleoside triphosphate Compound 15-2 (FNTP) in varying (0.05-10 mM) concentrations. The reaction mixtures were incubated at 37° C. for 2 hours, and the products were denatured in a buffer containing urea. The products were separated by 20% polyacrylamide-urea gel electrophoresis and visualized by autoradiography.
Transcription samples (total volume 10 μL contained: 40 mM Tris-HCl pH 8.1 with 6 mM MgCl2, 5 mM dithiothreitol (DTT), 1 mM spermidine, 0.01% Triton-X 100, 50 μg/mL bovine serum albumin, 250 nM synthetic DNA template with a promotor for T7 RNAP, 4 units of T7 RNA polymerase, and 0.2 mM ribonucleoside triphosphates. A single α^32P-labeled NTP was added for labeling (typicallly 1 μL of 10 mCi/mL ). Inhibition assays were monitored with varying concentrations (0.05-10 mM) of nucleotide Compound 15-2. Polyacrylamide gel (20%) electrophoresis was performed on slab gels (18 cm×16 cm, or 35 cm×44 cm) containing 8M urea. […]

[3] = Cell proliferation assay, rapidly growing HFF cells; type: cell-based; settings: human, rapidly growing human foreskin fibroblast (HFF) cells; for IC50 at 72 h: rapidly growing HFF cells, read-out: Cytotoxicity (IC50), HFF Cells
Procedure: The toxicity of Compounds 14-1 and 14-2 was also measured in rapidly growing human foreskin fibroblast (HFF) cells and Daudi cells by cell proliferation assay (National Institute of Allergy and Infectious Diseases (NIAID), NIH, Bethesda, Md.). According to the assay method, the appropriate cells were seeded in six-well plates in MEM containing 10% FBS. Twenty four hours later, the cells were treated with several dilutions of the test compounds covering a range of 0.03-100 μg/ml. The plates were incubated in a CO2 incubator at 37° C. for 72h. The cells were washed after removing the media and subsequently released from the plate wells by the addition of 1 ml of 0.25% trypsin. The contents in the wells were mixed, diluted with Isotone III and counted using a Coulter counter. The CC50 values (concentration of compound giving 50% inhibition of cell proliferation) were calculated by linear regression analysis. Toxicity of Compound 14-1 was also evaluated in bone marrow precursor cells by previously published procedure (Sommadossi, J.-P., et al., Biochem. Pharmacol., 44:1921-1925, 1992).
(A) Cell Proliferation Assay: Twenty-four hours prior to assay, cells (HFF or Daudi) were seeded in six-well plates at a concentration of 2.5×10^4 cells per well in MEM containing 10% FBS. On the day of the assay, drugs were diluted serially in MEM containing 10% FBS at increments of 1:5 covering a range from […]. For drugs that had to be solubilized in DMSO, control wells receive MEM containing 10% DMSO. The media from the wells was then aspirated, and 2 mL of each drug concentration was added to each well. The cells were incubated in a CO2 incubator at 37° C. for 72 h. At the end of this time, the media-drug solution was removed, and the cells were washed. Trypsin-EDTA (0.25%, 1 mL) was added to each well and incubated until the cells started to come off the plate. The cell-media mixture was then pipeted up and down vigorously to break up the cell suspension and 0.2 mL of the mixture added to 9.8 mL of Isoton III and the cells were counted using a Coulter Counter. Each sample was counted three times with two replicate wells per sample. The IC50 values were calculated using a computer program.

[4] = test system: HCMV; test: Cytopathic effect (CPE) inhibition assay, CMV in HFF cells; settings: for EC50: Human betaherpesvirus 5, HFF, 336 h, read-out: Antiviral Activity (EC50), anti-HCMV; for SI (Selectivity Index), Neutral Red Uptake: IC50 (neutral red, stationary HFF) divided by anti-HCMV EC50; for SI (Selectivity Index), HFF Cells: IC50 (rapidly growing HFF) divided by anti-HCMV EC50
[5] = Neutral red uptake assay, stationary HFF cells; type: cell-based; settings: human, read-out: Cytotoxicity (IC50), Neutral Red Uptake
Procedure: (B) Neutral Red Uptake Assay: Twenty-four hours prior to assay, HFF cells were plated into 96-well plates at a concentration of 2.5×10^4 cells/well. After 24 h, the media was aspirated, and […] of media containing drug was added to the first row of wells and then diluted serially 1:5 using the automated Cetus Liquid Handling System. The plates were then incubated in a Co2 incubator at 37° C. for 7 days. At this time the media/drug was removed, cells were washed, 200 μL/well of 0.01% neutral red in PBS was added, and the mixture was incubated for 1 h. The dye was removed, and the cells were washed using a Nunc Plate Washer. After the wash was removed, […] of 50% ethanol/1% aqueous acetic acid was added. The plates were placed on a rotating shaker for 15 min, and the optical densities were then read at 540 nm using a plate reader.
Data Analysis: Dose-response relationships were constructed by linearly regressing the percent inhibition of parameters derived in the preceding sections against log drug concentrations. Fifty-percent inhibitory (IC50) concentrations were calculated from the regression lines.

[6] = target: T2, rabbit liver guanase (Oryctolagus cuniculus, UniProt G1T386); test: Inhibition of guanase (Examples 10 and 11); type: biochemical; settings: Lineweaver-Burk plot; for Ki: Tris buffer pH 7.6, 21° C., substrate guanine
T2 construct: employing rabbit liver guanase; from tissue; host or cells: rabbit liver
T2 sequence (G1T386 1-454): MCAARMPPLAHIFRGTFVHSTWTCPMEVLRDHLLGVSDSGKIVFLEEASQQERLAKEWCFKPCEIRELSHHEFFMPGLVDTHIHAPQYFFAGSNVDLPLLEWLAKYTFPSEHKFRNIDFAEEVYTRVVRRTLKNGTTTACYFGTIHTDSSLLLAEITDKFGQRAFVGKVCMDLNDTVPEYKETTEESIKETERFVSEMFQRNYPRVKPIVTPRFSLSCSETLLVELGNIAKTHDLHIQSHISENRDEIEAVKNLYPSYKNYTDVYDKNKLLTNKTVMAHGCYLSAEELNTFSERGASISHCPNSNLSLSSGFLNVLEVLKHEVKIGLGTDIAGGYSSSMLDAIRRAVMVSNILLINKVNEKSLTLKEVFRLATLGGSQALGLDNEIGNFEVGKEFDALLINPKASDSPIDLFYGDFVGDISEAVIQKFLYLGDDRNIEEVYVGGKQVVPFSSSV
Source text: The concentration of the inhibitor ranged from 4×10^−5 M to 8×10^−5 M (Example 7), and 4.4×10^−5 M to 8.9×10^−5 M (Example 8). The concentration of the enzyme used for each assay was 0.0082 units/mL.

Structure (SMILES): Nc1ccn([C@H]2CS[C@@H](CO)O2)c(=O)n1 [Compound 3TC, 2′,3′-dideoxy-L-3′-thiacytidine, reference compound]
EC90 ([1]; extracellular HBV virion DNA, read-out: EC90 Virion): 198 ± 20 nM
EC50 ([1]; extracellular HBV virion DNA, read-out: EC50 Virion): 65 ± 10 nM
EC90 ([1]; intracellular HBV DNA replicative intermediates, read-out: EC90 HBV RI): 922 ± 85 nM
EC50 ([1]; intracellular HBV DNA replicative intermediates, read-out: EC50 HBV RI): 172 ± 19 nM

Structure (SMILES): N=c1nc(N)nc(N)c2ncn([C@@H]3O[C@H](COP(=O)(O)OP(=O)(O)OP(=O)(O)O)[C@@H](O)[C@H]3O)c12 [Compound 15-2, 5′-triphosphate derivative of 4,6-diamino-8-imino-8H-1-β-D-ribofuranosylimidazo[4,5-e][1,3]diazepine]
incorporation into RNA during transcription (substrate for T7 polymerase) ([2]; 42-mer DNA template): not a substrate for T7 polymerase
inhibition of T7 RNA polymerase-catalyzed transcription ([2]; 42-mer and 37-mer DNA templates, 0.05-10 mM): inhibitor of T7 polymerase

Structure (SMILES): O=C1c2nc(Br)n(Cc3ccccc3)c2N(Cc2ccccc2)C(=O)CN1Cc1ccccc1 [Compound 19, 3,4,7-Tribenzyl-2-bromo-4,5,7,8-tetrahydro-6H-imidazo [4,5-e][1,4]diazepine-5,8-dione]
IC50 at 72 h [3]: 56.5 µg/mL (≈ 110 µM)
EC50 [4]: 8.1 µg/mL (≈ 15.7 µM)
SI (Selectivity Index), Neutral Red Uptake [4]: 10.9
SI (Selectivity Index), HFF Cells [4]: 6.98
melting point: 174 to 176 °C
IC50 at 7 days [5]: 88.1 µg/mL (≈ 171 µM)

melting point: > 220 °C
Structure (SMILES): N=c1nc(N)c2nc[nH]c2c(N)n1 [Example 1, 4,8-Diamino-6-imino-1H-imidazo[4,5-e][1,3]diazepine]

melting point: 202 to 204 °C
Structure (SMILES): N=c1nc(N)c2ncn(Cc3ccccc3)c2c(N)n1 [Example 3, 4,8-Diamino-1-benzyl-6-iminoimidazo[4,5-e][1,3]diazepine]

mode of inhibition of guanase [6]: competitive inhibitors
Ki [6]: 190 µM
Structure (SMILES): COC(=O)C1(N)NC(=O)c2[nH]cnc2NC1=O (stereo not drawn) [Example 7, 6-Amino-6-methoxycarbonyl-4,5,7,8-tetrahydro-6H-imidazo[4,5-e]-[1,4]diazepine-5,8-dione]

mode of inhibition of guanase [6]: competitive inhibitors
Ki [6]: 540 µM
Structure (SMILES): COC(=O)C1(OC)NC(=O)c2[nH]cnc2NC1=O (stereo not drawn) [Example 8, 6-Methoxy-6-methoxycarbonyl-4,5,7,8-tetrahydro-6H-imidazo[4,5-e][1,4]-diazepine-5,8-dione]

EC50 [4]: 0.05 µg/mL (≈ 0.196 µM)
Structure (SMILES): Nc1nc(O)c2ncn(COC(CO)CO)c2n1 [Ganciclovir, reference compound]
CC50 at 72 h ([3]; Rapidly growing HFF cells): > 40 µg/mL
IC50 at 72 h [3]: 40 µg/mL (≈ 157 µM)
SI (Selectivity Index), Neutral Red Uptake [4]: >2000
SI (Selectivity Index), HFF Cells [4]: 800
IC50 at 7 days [5]: > 100 µg/mL
